Tested on: T1, β-glucosidase
T1 construct: recombinant, cloned and expressed in E. coli DH5alpha; extracellular, from culture supernatant; partially purified (ammonium sulfate, dialysis); EC 3.2.1.21
Test: p-nitrophenol release at […] nm, Lineweaver-Burk plot
Assay type: biochemical, Bacillus subtilis
Settings: free enzyme, partially purified; acetate buffer 100 mM, pH 5.0, 60 °C, 30 min; 1–15 mM substrate

**Q.** Which Km does the source give for O=[N+]([O-])c1ccc(O[C@@H]2O[C@H](CO)[C@@H](O)[C@H](O)[C@H]2O)cc1 [pNPG] here?
**A.** 3.6 mM
